Data published in PMC8323883, “PlzA is a bifunctional c-di-GMP biosensor that promotes tick and mammalian host-adaptation of Borrelia burgdorferi” (PLoS Pathogens, 2021).

Target: T1, PlzA (BB0733) (Borreliella burgdorferi, UniProt O51675)
T1 construct: gene BB_0733; PilZN3-PilZ domains
Assay: SAXS with and without ligand (Kratky plots)
Format: binding
Settings: 33-135 µM PlzA, 270 µM c-di-GMP; 500 mM NaCl, 20 mM Na2HPO4, pH 7.4; ligand-induced conformational change

T1 sequence (O51675 entry or part of it): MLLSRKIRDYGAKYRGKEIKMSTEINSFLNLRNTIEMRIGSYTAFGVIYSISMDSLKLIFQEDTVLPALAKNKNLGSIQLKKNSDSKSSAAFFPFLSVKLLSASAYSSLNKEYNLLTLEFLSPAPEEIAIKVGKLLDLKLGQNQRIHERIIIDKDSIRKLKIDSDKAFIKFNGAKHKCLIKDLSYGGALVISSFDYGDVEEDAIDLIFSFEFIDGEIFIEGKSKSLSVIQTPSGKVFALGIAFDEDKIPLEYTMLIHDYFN

SMILES: Nc1nc2c(ncn2[C@@H]2O[C@@H]3COP(=O)(O)O[C@H]4[C@@H](O)[C@H](n5cnc6c(=O)[nH]c(N)nc65)O[C@@H]4COP(=O)(O)O[C@H]3[C@H]2O)c(=O)[nH]1 [c-di-GMP, bis-(3′-5′)-cyclic dimeric guanosine monophosphate]
- SAXS with and without ligand (Kratky plots): confirming a major structural rearrangement upon binding of c-di-GMP
